pEC50: −log10 of the molar value. Where two headings read alike, the source gives them in different places.
Legend:
[1] = target: T1, Human soluble guanylate cyclase enzyme (hsGC) (Homo sapiens, UniProt Q02108+Q02153); assay: Purified human sGC enzyme activity assay (without SNP); assay type: biochemical; conditions: compound at 30 μM, absence of SNP; fold over DMSO control; Table 5A
T1 construct: purchased Enzo Inc. ALX-201-177
T1 sequence (Q02153 1-619): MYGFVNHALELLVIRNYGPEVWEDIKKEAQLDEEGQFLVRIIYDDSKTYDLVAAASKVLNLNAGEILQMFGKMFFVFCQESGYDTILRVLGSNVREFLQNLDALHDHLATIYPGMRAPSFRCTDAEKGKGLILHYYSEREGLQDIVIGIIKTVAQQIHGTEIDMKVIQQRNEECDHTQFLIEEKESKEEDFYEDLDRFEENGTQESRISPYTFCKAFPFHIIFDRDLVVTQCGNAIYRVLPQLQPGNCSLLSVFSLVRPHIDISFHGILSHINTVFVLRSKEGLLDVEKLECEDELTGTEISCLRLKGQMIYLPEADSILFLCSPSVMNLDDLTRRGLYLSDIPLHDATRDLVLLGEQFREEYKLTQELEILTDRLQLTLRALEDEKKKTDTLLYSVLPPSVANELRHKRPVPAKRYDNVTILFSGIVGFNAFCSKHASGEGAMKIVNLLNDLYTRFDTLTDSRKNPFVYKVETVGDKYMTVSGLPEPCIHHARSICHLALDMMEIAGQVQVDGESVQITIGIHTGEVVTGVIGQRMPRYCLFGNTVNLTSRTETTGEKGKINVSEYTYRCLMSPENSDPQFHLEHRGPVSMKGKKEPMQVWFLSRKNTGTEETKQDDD
T1 sequence (Q02108 1-690): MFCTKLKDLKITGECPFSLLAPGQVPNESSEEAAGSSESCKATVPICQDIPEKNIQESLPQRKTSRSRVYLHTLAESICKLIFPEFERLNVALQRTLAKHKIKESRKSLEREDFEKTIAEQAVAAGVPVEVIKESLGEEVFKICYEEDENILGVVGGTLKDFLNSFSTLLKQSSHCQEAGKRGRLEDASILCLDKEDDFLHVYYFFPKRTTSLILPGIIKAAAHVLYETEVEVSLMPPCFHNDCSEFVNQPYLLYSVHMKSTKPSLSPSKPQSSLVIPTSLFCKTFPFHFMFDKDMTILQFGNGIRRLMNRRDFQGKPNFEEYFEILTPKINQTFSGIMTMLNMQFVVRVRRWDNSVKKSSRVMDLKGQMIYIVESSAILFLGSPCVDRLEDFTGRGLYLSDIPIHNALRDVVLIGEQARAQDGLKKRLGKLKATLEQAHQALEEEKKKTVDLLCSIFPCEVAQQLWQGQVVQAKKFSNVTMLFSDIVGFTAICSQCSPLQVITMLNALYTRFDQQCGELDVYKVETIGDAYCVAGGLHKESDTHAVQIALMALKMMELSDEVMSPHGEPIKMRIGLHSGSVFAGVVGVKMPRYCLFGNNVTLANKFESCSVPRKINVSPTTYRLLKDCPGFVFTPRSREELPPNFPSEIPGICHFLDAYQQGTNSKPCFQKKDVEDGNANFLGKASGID
Protocol: Biological Activity Measurements by the Purified Human sGC Enzyme Activity Assay
(§1) Human soluble guanylate cyclase enzyme (hsGC) obtained from Enzo Inc. (P/N: ALX-201-177) was used to evaluate the activity of test compounds. The assay reactions contained 0.1 M Tris (pH 8.0), 0.5 mg/mL BSA (pH 8.0), 2 mM DTT, 2 mM MgCl2, 300 μM GTP, 1 mM 3-isobutyl-1-methylxanthine (IBMX) and 5 ng human soluble guanylate cyclase enzyme. Test compounds in DMSO were then added (2 μL, 10 or 30 μM final concentration) and incubated (200 μL, 96-well plate format) at 37° C. for 30 minutes. The controls were carried out using 2 μL DMSO. After the 30 minute incubation, the reaction was stopped with the addition of 200 μl of cold methanol. The plate was then centrifuged at 3,200 rpm for 10 minutes at room temperature. Supernatants (200 μL) were collected and transferred to a new 96 well plate for analysis.
(§2) An 8 point cGMP (Sigma-Aldrich P/N: G6129) standard curve was prepared in assay buffer ranging from 0.156-20 μM. Samples for the cGMP standard curve were then diluted with an equal volume of methanol resulting in final cGMP concentrations of 0.078-10 μM.
(§3) The cGMP standard curve was generated using GraphPad Prism Software.
(§4) Calculations: Specific Activity was determined by the amount of cGMP formed (nmoles) per mg of sGC per min. Enzyme “fold-change” was calculated by dividing Specific Activity for test compounds by Specific Activity of DMSO controls.

[2] = target: T1, Human soluble guanylate cyclase enzyme (hsGC); assay: Purified human sGC enzyme synergy assay in the presence of 1 μM sodium nitroprusside (SNP); assay type: biochemical; conditions: compound at 30 μM, presence of 1 μM SNP; Table 5A
Protocol: as §1, §2, §3, §4
Biological Measurement by the Purified Human sGC Enzyme Synergy Performed in the Presence of Sodium Nitroprusside (SNP), a Nitric Oxide Donor
Enzyme assays were performed as described above, but was done in the absence or presence of 1 μM sodium nitroprusside (SNP).

[3] = target: T2, soluble guanylate cyclase (sGC) (Homo sapiens, UniProt Q02108+Q02153); assay: sGC-HEK-cGMP assay (run with SNP incubation); assay type: cell-based; conditions: for Emax: 10 μM SNP, 100% = 30 μM BAY 41-2272 with 10 μM SNP, read-out: HEK assay Emax-unconstrained (Percent); for HEK MEC-10: concentration that would elicit 10% of the Emax in the presence of 10 μM SNP; for pEC50: in the presence of 10 μM SNP
T2 construct: endogenously expressing soluble guanylate cyclase (sGC); endogenous in cells; host or cells: HEK293
T2 sequence (Q02153 1-619): T1 sequence (Q02153 1-619)
T2 sequence (Q02108 1-690): T1 sequence (Q02108 1-690)
Protocol: Biological Activity Measurement by the sGC-HEK-cGMP Assay
(Assay Run with SNP Incubation)
Human embryonic kidney cells (HEK293), endogenously expressing soluble guanylate cyclase (sGC), were used to evaluate the activity of test compounds. Compounds stimulating the sGC receptor should cause an increase in the intracellular concentration of cGMP. HEK 293 cells were seeded in Dulbecco's Modification of Eagle's Medium supplemented with fetal bovine serum (10% final) and L-glutamine (2 mM final) in a 2004 volume at a density of 1×10^5 cells/well in a poly-D-lysine coated 96 well flat bottom plate and grown overnight at 37° C. Medium was aspirated and cells were washed with 1× Hank's Buffered Saline Salt Solution (2004). Cells were then incubated for 15 minutes at 37° C. with 0.5 mM 3-isobutyl-1-methylxanthine (2004). Test article and sodium nitroprusside were then added to the assay mixture (24 each) and incubated at 37° C. for 10 minutes. After the 10 minute incubation, the assay mixture was aspirated and 0.1M HCl (2004) was added to the cells. The plate was incubated at 4° C. for 30 minutes in the 0.1M HCl to stop the reaction and lysed the cells. The plates were then centrifuged at 1,200 g for 5 minutes at room temperature. Supernatants were collected and transferred to a new flat bottom 96 well plate for analysis. Vehicle controls were carried out using DMSO (1%). A known sGC stimulator, BAY 41-2272, was used as the positive control. Samples were diluted with an equal volume of 1 M Ammonium Acetate (pH 7) to neutralize samples for better chromatography. A 2×cGMP standard curve was prepared in 0.1 M HCl and then diluted with an equal volume of 1 M Ammonium Acetate, with the following final concentrations in nM: 1024, 512, 256, 128, 64, 32, 16, 8, 4, 2, 1.cGMP concentrations were determined from each sample using the LC/MS conditions (Table 2 below) and calculated standard curve. EC50 values were calculated from concentration-response curves generated with GraphPad Prism Software.

[4] = Table 3C, top of concentration-response curve not fitted to 100%
[5] = Table 3F, read-out: HEK assay EC50
[6] = top of concentration-response curve not fitted to 100%, Table 3F, read-out: HEK assay EC50-unconstrained
[7] = Table 3A, top of concentration-response curve not fitted to 100%
[8] = Table 3D, read-out: HEK assay EC50
[9] = top of concentration-response curve not fitted to 100%, Table 3D, read-out: HEK assay EC50-unconstrained

| Emax [3, 4] | HEK MEC-10 ([3]; Table 3F) | pEC50 [3, 5] | pEC50 [3, 6] | Emax [3, 7] | HEK MEC-10 ([3]; Table 3D) | pEC50 [3, 8] | pEC50 [3, 9] | SMILES | further results |
| --- | --- | --- | --- | --- | --- | --- | --- | --- | --- |
|  |  |  |  |  |  |  |  | Fc1cccnc1Cn1nc(-c2ncccn2)cc1-c1ccon1 [Compound 57] | Enzyme Activity (increase at 30 μM without SNP) [1]: A (no increase to <2 fold increase); Enzyme Activity (increase at 30 μM with SNP) [2]: A (no increase to <2 fold increase) |
| 60 to 80% | B (0.01 to <0.1 μM) | > 4.70 | 6.30 to 8.00 |  |  |  |  | Nc1nc(-c2cc(-c3ccon3)n(Cc3ccccc3F)n2)ncc1NC(=O)CCC(F)(F)F [Compound 111] |  |
|  |  |  |  |  |  |  |  | Fc1ncccc1Cn1nc(-c2ncccn2)cc1-c1ccon1 [Compound 66] | Enzyme Activity (increase at 30 μM without SNP) [1]: A (no increase to <2 fold increase); Enzyme Activity (increase at 30 μM with SNP) [2]: A (no increase to <2 fold increase) |
| 60 to 80% | B (0.01 to <0.1 μM) | > 4.70 | 6.00 to 6.30 |  |  |  |  | Nc1nc(-c2cc(-c3ccon3)n(Cc3cccc(F)c3F)n2)ncc1NC(=O)c1cc[nH]c1 [Compound 105] |  |
|  |  |  |  |  |  |  |  | O=c1[nH]c(-c2cc(-c3ccon3)n(Cc3ccncc3F)n2)ncc1F [Compound 26] | Enzyme Activity (increase at 30 μM without SNP) [1]: A (no increase to <2 fold increase); Enzyme Activity (increase at 30 μM with SNP) [2]: A (no increase to <2 fold increase) |
|  |  |  |  | 60 to 80% | B (0.01 to <0.1 μM) | > 4.70 | 6.30 to 8.00 | Oc1nc(-c2cc(-c3ncco3)n(Cc3ccccc3F)n2)ncc1Sc1ccccn1 [Compound 7, 2-(1-(2-fluorobenzyl)-5-(oxazol-2-yl)-1H-pyrazol-3-yl)-5-(pyridin-2-ylthio)pyrimidin-4-ol] |  |
|  |  |  |  | 60 to 80% | C (0.1 to <1 μM) | 4.40 to 4.70 | 4.30 to 5.00 | Oc1nc(-c2cc(-c3ccon3)n(Cc3ccccc3F)n2)ncc1Sc1ccccn1 [Compound 18, 2-(1-(2-fluorobenzyl)-5-(isoxazol-3-yl)-1H-pyrazol-3-yl)-5-(pyridin-2-ylthio)pyrimidin-4-ol] |  |
|  |  |  |  |  |  | 2.15 to 2.92 |  | Oc1nc(-c2cc(-c3ccon3)n(Cc3ccccc3F)n2)ncc1Sc1ccc(C(F)(F)F)cc1 [Compound 17, 2-(1-(2-fluorobenzyl)-5-(isoxazol-3-yl)-1H-pyrazol-3-yl)-5-(4-(trifluoromethyl)phenylthio)pyrimidin-4-ol] |  |
|  |  |  |  | 40 to 60% | C (0.1 to <1 μM) | 4.40 to 4.70 | 5.30 to 6.00 | Oc1nc(-c2cc(-c3ncco3)n(Cc3ccccc3F)n2)ncc1Sc1ccccc1 [Compound 20, 2-(1-(2-fluorobenzyl)-5-(oxazol-2-yl)-1H-pyrazol-3-yl)-5-(phenylthio)pyrimidin-4-ol] |  |
|  |  |  |  | 60 to 80% | D (1 to <10 μM) | > 4.70 | 5.30 to 6.00 | Fc1ccccc1Cn1nc(-c2ncc(F)c(Cl)n2)cc1-c1ccon1 [Compound 30, 3-(3-(4-chloro-5-fluoropyrimidin-2-yl)-1-(2-fluorobenzyl)-1H-pyrazol-5-yl)isoxazole] |  |
| 60 to 80% | B (0.01 to <0.1 μM) | > 4.70 | 6.30 to 8.00 |  |  |  |  | Nc1nc(-c2cc(-c3ccon3)n(Cc3ccccc3F)n2)ncc1NC(=O)C(Cl)(Cl)Cl [Compound 98] |  |
| 40 to 60% | C (0.1 to <1 μM) | > 4.70 | 5.30 to 6.00 |  |  |  |  | Nc1nc(-c2cc(-c3ccon3)n(Cc3cccc(F)c3F)n2)ncc1NC(=O)C12CC3CC(CC(O)(C3)C1)C2 [Compound 107] |  |
|  |  |  |  | 40 to 60% | D (1 to <10 μM) | > 4.70 | 6.30 to 8.00 | N#CC1(C(=O)Nc2cnc(-c3cc(-c4ccon4)n(Cc4cccc(F)c4F)n3)nc2N)CC1 [Compound 36] |  |
| 80 to 100% | A (0.001 to <0.01 μM) | > 4.70 | 6.30 to 8.00 |  |  |  |  | Nc1nc(-c2cc(-c3ccon3)n(Cc3cccc(F)c3F)n2)ncc1NC(=O)c1ccc(C(F)(F)F)cc1 [Compound 101] |  |
| 40 to 60% | C (0.1 to <1 μM) | > 4.70 | 5.30 to 6.00 |  |  |  |  | CN(C)Cc1cccc(C(=O)Nc2cnc(-c3cc(-c4ccon4)n(Cc4cccc(F)c4F)n3)nc2N)c1 [Compound 104] |  |
|  |  |  |  | 60 to 80% | B (0.01 to <0.1 μM) | > 4.70 | 6.30 to 8.00 | Nc1nc(-c2cc(-c3ccon3)n(Cc3ccccc3F)n2)ncc1NC(=O)C1(c2ccccc2F)CC1 [Compound 9] |  |

| SMILES | Emax [3, 4] | HEK MEC-10 ([3]; Table 3F) | pEC50 [3, 5] | pEC50 [3, 6] | Emax [3, 7] | HEK MEC-10 ([3]; Table 3D) | pEC50 [3, 8] | pEC50 [3, 9] | further results |
| --- | --- | --- | --- | --- | --- | --- | --- | --- | --- |
| CN(C1CC1)S(=O)(=O)c1cnc(-c2cc(-c3ccon3)n(Cc3ccccc3F)n2)[nH]c1=O [Compound 14] |  |  |  |  | 40 to 60% | B (0.01 to <0.1 μM) | > 4.70 | 6.30 to 8.00 |  |

From patent US20150342954A1, “2-BENZYL, 3-(PYRIMIDIN-2-YL) SUBSTITUTED PYRAZOLES USEFUL AS SGC STIMULATORS” (IRONWOOD PHARMACEUTICALS, INC., priority 2011, published 2015)
